For data set [1], the system named is rat hypercalcemia induced by PTHrp(1-34). Kind of data set: Rat hypercalcemia induced by PTHrp(1-34), intraperitoneal administration. The data set is classed as in vivo, male Wistar rats. The following applies: 10 mg/kg intraperitoneal; for Ca conc. ± standard error: blood 1 hour after PTHrp, n = 5. As to the method:
To male Wistar rats aged 5 weeks (70 - 90 g, 5 animals in each group), 10 mg/kg body weight of Compound 1 was intraperitoneally administered 0.5, 1, 2 and 4 hours before the administration of PTHrp(1-34). PTHrp(1-34) was intravenously injected into the animals at the level of 5 nmole/kg. One hour after the administration of PTHrp(1-34), a blood sample was collected from each animal and the blood calcium concentration was determined by the same method as the one employed in Example 1.

The nature of data set [2]: Acute toxicity, intraperitoneal. The note with it: 2 g/kg intraperitoneally, rats. The class given is in vivo.
Data set [3] relates to secondary hyperparathyroidism. Nature of the data set: Secondary hyperparathyroidism, calcium-deficient diet model. The class given is in vivo, male Wistar rats. The following applies: 40 mg/kg oral after 5 days calcium-deficient diet; blood 5 hours after administration. As to the method: In a calcium-deficient diet model system of rats, parathyroid hormone is released in order to maintain the blood calcium concentration within a normal range. In other words, the parathyroid hormone induces bone resorption so that the blood calcium concentration is maintained within a normal range.
Taking advantage of the above-mentioned model system, male Wistar rats aged 5 weeks (70 - 90 g, 5 animals in each group) were fed on calcium-deficient diet for 5 days. After fasting overnight, 40 mg/kg body weight of the compounds listed in Table 1 were orally administered to the rats. 5 hours after the administration of the drugs, the blood calcium concentration of each animal was determined by the same method as the one employed in Example 1.

Data set [4] concerns rat hypercalcemia induced by PTHrp(1-34). Kind of data set: Rat hypercalcemia induced by PTHrp(1-34), oral administration. The data set is classed as in vivo, male Wistar rats. The following applies: 4 hours before PTHrp(1-34) 5 nmole/kg i.v., blood 1 hour after PTHrp, n = 5. As to the method:
To male Wistar rats aged 5 weeks (70 - 90 g, 5 animals in each group), 40 mg/kg body weight of the compounds listed in Table 2 and 40 and 80 mg/kg body weight of the compounds listed in Table 3 were orally administered. After 4 hours, 5 nmole/kg of PTHrp(1-34) was intravenously injected into the animals.
One hour after the administration of PTHrp(1-34), a blood sample was collected from each rat and the blood calcium concentration was determined by the octocresolphthalein complexone method.

Non-standard residues stand in square brackets, D forms with d. Residues, ends and D or L forms follow the SMILES beside them. *: point of attachment. Nle = CCCC[C@H](N)C(=O)O; Cbz = O=C(OCc1ccccc1)*

Consider `CCCC[C@@H](C=O)NC(=O)[C@H](CC(C)C)NC(=O)OCc1ccccc1` [Compound 1, N-benzyloxycarbonyl-leucyl-norleucinal], for which the “suppression of the increase in the blood calcium concentration (result in words)” value in data set [1] (0.5 to 4 hours before PTHrp(1-34)) is listed as “continuously effected significant suppression”. Besides, the “Ca conc. ± standard error” value in data set [1] (0.5 hr before PTHrp(1-34)) is 11.74 ± 0.07 mg/dL; in data set [1] (1 hr before PTHrp(1-34)), 11.28 ± 0.07 mg/dL; in data set [1] (2 hr before PTHrp(1-34)) it was 11.56 ± 0.09 mg/dL; in data set [1] (4 hr before PTHrp(1-34)), 11.91 ± 0.09 mg/dL. Besides, the “acute toxicity (general conditions, mortality)” value in data set [2] was “neither any change in the general conditions of the animals nor any mortal case was observed”.

As to `CCCCC(C=O)NC(=O)C(CC(C)C)NC(=O)CCCc1ccccc1` (centres unmarked) [Compound 2], the “blood calcium concentration (result in words)” value in data set [3] is “significantly reduced”.

Take `CCCCC(C=O)NC(=O)C(CC(C)C)NC(=O)OC(C)(C)C` (centres unmarked) [Compound 6]: in data set [3], the “blood calcium concentration (result in words)” value is “significantly reduced”. In the case of `CCCCC(C=O)NC(=O)C(CC(C)C)NC(=O)OCc1ccc(Cl)cc1` (centres unmarked) [Compound 8], in data set [3], the “blood calcium concentration (result in words)” value was “significantly reduced”. Regarding `CCCCC(C=O)NC(=O)C(CC(C)C)NC(=O)OCc1ccc(OC)cc1` (centres unmarked) [Compound 9], in data set [3], the “blood calcium concentration (result in words)” value is given as “significantly reduced”.

`CCCCC(C=O)NC(=O)C(CC(C)C)NC(=O)OCC(Cl)(Cl)Cl` (centres unmarked) [Compound 11]: the “blood calcium concentration (result in words)” value in data set [3] is “significantly reduced”. The same measure, in the same setting: under `CCCCC(C=O)NC(=O)C(CC(C)C)NP(=S)(c1ccccc1)c1ccccc1` (centres unmarked) [Compound 15] stands “significantly reduced”.

`CSCC[C@@H](C=O)NC(=O)[C@H](CC(C)C)NC(=O)[C@H](CC(C)C)NC(C)=O` [Compound 21, N-Acetyl-leucyl-leucyl-methioninal] (Ac-Leu-Leu-Met-aldehyde): the “Ca conc. ± standard error” value in data set [4] (40 mg/kg oral) was 9.78 ± 0.08 mg/dL; in data set [4] (80 mg/kg oral) it was 9.61 ± 0.13 mg/dL. On to `CCCC[C@@H](C=O)NC(=O)[C@H](CC(C)C)NC(=O)[C@H](CC(C)C)NC(C)=O` [Compound 22, N-Acetyl-leucyl-leucyl-norleucinal] (Ac-Leu-Leu-[Nle]-aldehyde), for which the figures for the “Ca conc. ± standard error” value in data set [4] (40 mg/kg oral) and in data set [4] (80 mg/kg oral) were 9.49 ± 0.20 mg/dL and 9.52 ± 0.11 mg/dL, respectively.

As to `CCCC[C@@H](C=O)NC(=O)[C@H](CC(C)C)NC(=O)[C@H](CC(C)C)NC(=O)OCc1ccccc1` [Compound 23, N-Benzyloxycarbonyl-leucyl-leucyl-norleucinal] (Cbz-Leu-Leu-[Nle]-aldehyde), the entries for the “Ca conc. ± standard error” value in data set [4] (40 mg/kg oral) and in data set [4] (80 mg/kg oral) were 9.53 ± 0.08 mg/dL and 9.28 ± 0.66 mg/dL, respectively. Turning to `CC(C)CC(NC(=O)C1OC1C(=O)O)C(=O)NCCCCNC(=N)N` [Compound E-64, L-trans-epoxysuccinyl-L-leucineamide-(e-guanide)-butane, reference compound], the “Ca conc. ± standard error” value was 9.69 ± 0.21 mg/dL in data set [4] (40 mg/kg oral) and 9.61 ± 0.12 mg/dL in data set [4] (80 mg/kg oral).

Source of the values: patent EP0504938A2, “Prophylactic and therapeutic agent for bone diseases comprising di- or tripeptide derivative as active ingredient” (SUNTORY LIMITED, priority 1991, dated 1992).
